Data reported in patent US20130040951A9, “PROPHYLACTIC OR THERAPEUTIC AGENT FOR CANCER” (Takeda Pharmaceutical Company Limited, priority 2009, published 2013).

How the values were obtained:
[1] = molecular target: T1, fusion protein containing GAL4-DNA-binding domain and ERR full-length (Homo sapiens, UniProt P11474); experiment: Reporter assay system using 293T cells (GAL4-ERR luciferase, inverse agonist activity); format: cell-based; details: HEK-293T; compound final concentration 3 μM, 1 day; luciferase activity in 293T cells; no compound = 0%, 10 μM XCT-790 = 100%; read-out: inhibition rate (%) at 3 μM
T1 construct: expressed in transfected cells; host or cells: 293T cells
T1 sequence (P11474 1-423): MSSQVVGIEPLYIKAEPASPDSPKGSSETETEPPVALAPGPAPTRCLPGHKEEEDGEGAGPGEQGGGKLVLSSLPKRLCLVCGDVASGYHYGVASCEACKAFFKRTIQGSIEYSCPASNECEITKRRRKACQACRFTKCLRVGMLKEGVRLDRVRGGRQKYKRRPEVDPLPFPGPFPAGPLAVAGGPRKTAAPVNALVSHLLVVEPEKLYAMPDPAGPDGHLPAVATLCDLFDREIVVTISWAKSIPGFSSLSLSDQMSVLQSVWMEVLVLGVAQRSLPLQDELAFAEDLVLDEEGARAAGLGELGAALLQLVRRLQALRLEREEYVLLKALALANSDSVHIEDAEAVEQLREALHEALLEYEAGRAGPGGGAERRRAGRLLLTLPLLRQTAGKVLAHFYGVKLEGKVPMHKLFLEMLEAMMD
Procedure: Compound Evaluation in Reporter Assay System Using 293T Cells
293T cells were seeded in a 150 cm^2 flask by 6,000,000 cells, and cultured in a medium (DMEM medium containing 10% inactivated Fetal Bovine Serum sterile filtered (FBS), 50 μg/ml Gentamicin, 10 mM HEPES buffer (pH 7.4)) at 37° C. in the presence of 5% CO2 for 1 day.
Then, vector DNA having a gene encoding a fusion protein containing GAL4-DNA-binding domain and ERR full-length and a vector DNA wherein luciferase gene is fused at the downstream of GAL4-binding sequence were cotransfected by a lipofection method, and the cells were cultured at 37° C. in the presence of 5% CO2 for 1 day. The cells were recovered, sown in a 384 well plate by 15,000 cells, and cultured at 37° C. in the presence of 5% CO2 for 3 hr. Furthermore, 50 μM XCT-790 (final concentration 10 μM) or 15 μM compound (final concentration 3 μM) was added, and the cells were cultured at 37° C. in the presence of 5% CO2 for 1 day. The luciferase activity was measured by using a multiplate reader Envision (Perkin Elmer Inc.). The inverse agonist activity of the compound was calculated in percentage with the luciferase activity inhibited by no addition of compound as 0%, and with addition of final concentration 10 μM of XCT-790 (N-[5-(trifluoromethyl)-1,3,4-thiadiazol-2-yl]-2-cyano-3-[3-methoxy-4-[2,4-di(trifluoromethyl)benzyloxy]phenyl]propenamide) as 100%.

[2] = molecular target: T2, GST-ERRα ligand-binding domain (Homo sapiens, UniProt P11474); experiment: HTRF assay system using ERRα ligand-binding domain (biotinylated SRC-1 (676-700) peptide); format: biochemical; details: compound final concentration 3 μM, room temperature 2 hr; 615/665 ratio value; no compound = 0%, 10 μM XCT-790 = 100%; read-out: inhibition rate (%) at 3 μM
T2 sequence (P11474 193-421 limits assumed): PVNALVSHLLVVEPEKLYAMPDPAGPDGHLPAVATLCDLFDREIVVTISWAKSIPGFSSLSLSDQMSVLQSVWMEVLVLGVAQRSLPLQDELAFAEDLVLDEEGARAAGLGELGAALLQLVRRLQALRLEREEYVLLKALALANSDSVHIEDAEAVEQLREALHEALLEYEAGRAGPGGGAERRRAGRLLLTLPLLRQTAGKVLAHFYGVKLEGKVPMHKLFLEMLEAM
Procedure: Compound Evaluation in HTRF Assay System Using ERRα Ligand-Binding Domain
An assay buffer (25 mM HEPES, 100 mM NaCl, 1 mM DTT, 0.1% BSA) containing 5 nM GST-ERRα ligand-binding domain (final concentration 1.25 nM) was added to a 384 well plate, then […] XCT-790 (final concentration 10 μM), or 12 μM compound (final concentration 3 μM) was added. Furthermore, an assay buffer containing XL665 conjugated Streptavidine, Eu^3+criptate conjugated GST antibody and 200 nM biotinylated SRC-1 (676-700) (final concentration 100 nM) was added, and the mixture was reacted at room temperature for 2 hr. Using Multiplate reader Envision (Perkin Elmer Inc.), after excitation at 320 nm, fluorescence values at 615 nm and 665 nm were measured. The inverse agonist activity of the compound was calculated in percentage with the 615/665 ratio value inhibited by no addition of compound as 0%, and with addition of final concentration 10 μM of XCT-790 (N-[5-(trifluoromethyl)-1,3,4-thiadiazol-2-yl]-2-cyano-3-[3-methoxy-4-[2,4-di(trifluoromethyl)benzyloxy]phenyl]propenamide) as 100%.

[3] = tested on: ES-2 ovarian cancer cells; experiment: Cell proliferation inhibitory test (CCK-8); format: cell-based; details: compound final concentration 10 μM, 72 hr; CCK-8 absorbance at 450 nm; DMSO alone = 0%, cell-free well with medium only = 100%; read-out: inhibition rate (%) at 10 μM
Procedure: Cell Proliferation Inhibitory Test
ES-2 ovarian cancer cells were seeded in a 96 well plate at 1×10^3 cells/well, and incubated at 37° C. in the presence of 5% CO2 for 24 hr. Then, the compound was added at a final concentration of 10 μM, and the cells were cultured at 37° C. in the presence of 5% CO2 for 72 hr. For activity measurement of viable cells, a CCK-8 reagent (Cell Counting Kit-8, DOJINDO) was added, the cells were incubated at 37° C. for 1.5 hr, and the absorbance at 450 nm was measured by a microplate reader. Assuming the dehydrogenase activity in the DMSO alone addition group as 0%, and that in a cell-free well containing only a medium as 100%, the dehydrogenase activity of the compound addition group was calculated in percentage.

| SMILES | inhibition at 3 µM [1] | inhibition at 3 µM [2] | inhibition at 10 µM [3] |
| --- | --- | --- | --- |
| COc1cc(/C=C2\SC(=O)N=C2NCCC2CCCN2C)ccc1Oc1ccc(C#N)cc1C(F)(F)F (stereo not drawn) [Example 93, 4-(2-methoxy-4-{(Z)-[4-{[2-(1-methylpyrrolidin-2-yl)ethyl]amino}-2-oxo-1,3-thiazol-5(2H)-ylidene]methyl}phenoxy)-3-(trifluoromethyl)benzonitrile] | 88% | 105% | 101% |
| CCN1C(=N)/C(=C/c2ccc(Oc3ccc(C#N)cc3C(F)(F)F)c(OC)c2)N(C)C1=O [Example 145, 4-{4-[(Z)-(1-ethyl-5-imino-3-methyl-2-oxoimidazolidin-4-ylidene)methyl]-2-methoxyphenoxy}-3-(trifluoromethyl)benzonitrile] | 95% | 93% | 98% |
| CCN1C(=N)/C(=C\c2ccc(Oc3ccc(C#N)cc3C(F)(F)F)c(OC)c2)N(C)C1=O [Example 143, 4-{4-[(E)-(1-ethyl-5-imino-3-methyl-2-oxoimidazolidin-4-ylidene)methyl]-2-methoxyphenoxy}-3-(trifluoromethyl)benzonitrile] | 94% | 92% | 88% |
| COc1cc(/C=C2\SC(=O)N=C2NCC(C)(C)O)ccc1Oc1ccc(C#N)cc1C(F)(F)F [Example 116, 4-{4-[(Z)-{4-[(2-hydroxy-2-methylpropyl)amino]-2-oxo-1,3-thiazol-5(2H)-ylidene}methyl]-2-methoxyphenoxy}-3-(trifluoromethyl)benzonitrile] | 93% | 105% | 101% |
| CCN(CC)CCNC1=NC(=O)S/C1=C\c1ccc(Oc2ccc(C(F)(F)F)cc2Cl)c(OC)c1 [Example 94, (5Z)-5-({4-[2-chloro-4-(trifluoromethyl)phenoxy]-3-methoxyphenyl}methylidene)-4-{[2-(diethylamino)ethyl]amino}-1,3-thiazol-2(5H)-one] | 90% | 107% | 100% |
| COc1cc(/C=C2\SC(=O)N=C2NCCC2CCCN2C)ccc1Oc1ccc(C#N)c2ccccc12 (stereo not drawn) [Example 96, 4-(2-methoxy-4-{(Z)-[4-{[2-(1-methylpyrrolidin-2-yl)ethyl]amino}-2-oxo-1,3-thiazol-5(2H)-ylidene]methyl}phenoxy)naphthalene-1-carbonitrile] | 87% | 114% | 102% |
| CCN1C(=N)/C(=C/c2ccc(Oc3ccc(C#N)cc3C(F)(F)F)c(OC)c2)NC1=O [Example 25, 4-{4-[(Z)-(1-ethyl-5-imino-2-oxoimidazolidin-4-ylidene)methyl]-2-methoxyphenoxy}-3-(trifluoromethyl)benzonitrile] | 89% | 98% | 61% |
| CCN1C(=N)/C(=C/c2ccc(OCc3ccc(C(F)(F)F)cc3C(F)(F)F)c(OC)c2)N(C)C1=O [Example 32, (4Z)-4-[(4-{[2,4-bis(trifluoromethyl)benzyl]oxy}-3-methoxyphenyl)methylidene]-1-ethyl-5-imino-3-methylimidazolidin-2-one] | 91% | 103% | 98% |
